Numbers after ± are expanded uncertainties.
Test: xn = mol fraction of the nth substance listed
Details: 298.15 K, 101 kPa, Liquid

## CCC(C)=O [butanone] + C1COCO1
x2 = 0
  mass density: 798.1 ± 0.6 kg/m3
  viscosity: 0.373 ± 0.007 mPa·s

## C1COCCO1 [1,4-dioxane] + CCCCN
x1 = 1
  mass density: 1026.5 ± 0.8 kg/m3
  viscosity: 1.196 ± 0.02 mPa·s

## CCCCOC(C)=O [butyl ethanoate] + C1COCO1
x2 = 0
  mass density: 874.4 ± 0.7 kg/m3
  viscosity: 0.668 ± 0.012 mPa·s

## CCCCOC(C)=O [butyl ethanoate] + C1COCCO1
x2 = 0
  mass density: 874.4 ± 0.7 kg/m3
  viscosity: 0.668 ± 0.012 mPa·s
x2 = 0.1278
  mass density: 887.5 ± 0.7 kg/m3
  viscosity: 0.682 ± 0.012 mPa·s
x2 = 0.2479
  mass density: 901 ± 0.7 kg/m3
  viscosity: 0.692 ± 0.012 mPa·s
x2 = 0.361
  mass density: 914.9 ± 0.7 kg/m3
  viscosity: 0.708 ± 0.013 mPa·s
x2 = 0.4678
  mass density: 929.2 ± 0.7 kg/m3
  viscosity: 0.739 ± 0.013 mPa·s
x2 = 0.5687
  mass density: 944.1 ± 0.8 kg/m3
  viscosity: 0.779 ± 0.014 mPa·s
x2 = 0.6641
  mass density: 959.4 ± 0.8 kg/m3
  viscosity: 0.822 ± 0.014 mPa·s
x2 = 0.7547
  mass density: 975.3 ± 0.8 kg/m3
  viscosity: 0.866 ± 0.015 mPa·s
x2 = 0.8406
  mass density: 991.8 ± 0.8 kg/m3
  viscosity: 0.939 ± 0.016 mPa·s
x2 = 0.9223
  mass density: 1008.9 ± 0.8 kg/m3
  viscosity: 1.035 ± 0.017 mPa·s

## CCCCN [1-butanamine] + C1COCCO1
x2 = 0
  mass density: 731.9 ± 0.6 kg/m3
  viscosity: 0.493 ± 0.009 mPa·s
x2 = 0.0855
  mass density: 753.4 ± 0.6 kg/m3
  viscosity: 0.509 ± 0.01 mPa·s
x2 = 0.1738
  mass density: 776.1 ± 0.6 kg/m3
  viscosity: 0.524 ± 0.01 mPa·s
x2 = 0.265
  mass density: 800.1 ± 0.6 kg/m3
  viscosity: 0.541 ± 0.01 mPa·s
x2 = 0.3594
  mass density: 825.8 ± 0.7 kg/m3
  viscosity: 0.56 ± 0.01 mPa·s
x2 = 0.4569
  mass density: 853.3 ± 0.7 kg/m3
  viscosity: 0.59 ± 0.011 mPa·s
x2 = 0.5579
  mass density: 882.8 ± 0.7 kg/m3
  viscosity: 0.637 ± 0.011 mPa·s
x2 = 0.6625
  mass density: 914.7 ± 0.7 kg/m3
  viscosity: 0.699 ± 0.012 mPa·s
x2 = 0.7709
  mass density: 949.2 ± 0.8 kg/m3
  viscosity: 0.792 ± 0.014 mPa·s
x2 = 0.8834
  mass density: 986.4 ± 0.8 kg/m3
  viscosity: 0.941 ± 0.016 mPa·s

## C1COCO1 [1,3-dioxolane] + CCCCN
x1 = 1
  mass density: 1057.1 ± 0.9 kg/m3
  viscosity: 0.531 ± 0.01 mPa·s

## C1COCCO1 [1,4-dioxane] + CCCCOC(C)=O
x1 = 1
  mass density: 1026.5 ± 0.8 kg/m3
  viscosity: 1.196 ± 0.02 mPa·s

## C1COCO1 [1,3-dioxolane] + CCCCOC(C)=O
x1 = 0.1484
  mass density: 890.7 ± 0.7 kg/m3
  viscosity: 0.621 ± 0.011 mPa·s
x1 = 0.2816
  mass density: 906.9 ± 0.7 kg/m3
  viscosity: 0.599 ± 0.011 mPa·s
x1 = 0.4019
  mass density: 923.3 ± 0.7 kg/m3
  viscosity: 0.588 ± 0.011 mPa·s
x1 = 0.5111
  mass density: 940.3 ± 0.8 kg/m3
  viscosity: 0.583 ± 0.011 mPa·s
x1 = 0.6106
  mass density: 957.8 ± 0.8 kg/m3
  viscosity: 0.577 ± 0.011 mPa·s
x1 = 0.7017
  mass density: 976.1 ± 0.8 kg/m3
  viscosity: 0.571 ± 0.01 mPa·s
x1 = 0.7853
  mass density: 995.2 ± 0.8 kg/m3
  viscosity: 0.565 ± 0.01 mPa·s
x1 = 0.8625
  mass density: 1015 ± 0.8 kg/m3
  viscosity: 0.556 ± 0.01 mPa·s
x1 = 0.9338
  mass density: 1035.6 ± 0.9 kg/m3
  viscosity: 0.544 ± 0.01 mPa·s
x1 = 1
  mass density: 1057.1 ± 0.9 kg/m3
  viscosity: 0.531 ± 0.01 mPa·s

## CCCC(=O)O [butanoic acid] + C1COCCO1
x2 = 0
  mass density: 952.8 ± 0.8 kg/m3
  viscosity: 1.396 ± 0.023 mPa·s
x2 = 0.1
  mass density: 961.7 ± 0.8 kg/m3
  viscosity: 1.504 ± 0.025 mPa·s
x2 = 0.2
  mass density: 970.3 ± 0.8 kg/m3
  viscosity: 1.57 ± 0.026 mPa·s
x2 = 0.3
  mass density: 978.4 ± 0.8 kg/m3
  viscosity: 1.587 ± 0.026 mPa·s
x2 = 0.4
  mass density: 986.1 ± 0.8 kg/m3
  viscosity: 1.572 ± 0.026 mPa·s
x2 = 0.5
  mass density: 993.4 ± 0.8 kg/m3
  viscosity: 1.507 ± 0.025 mPa·s
x2 = 0.6
  mass density: 1000.2 ± 0.8 kg/m3
  viscosity: 1.443 ± 0.024 mPa·s
x2 = 0.7
  mass density: 1006.8 ± 0.8 kg/m3
  viscosity: 1.362 ± 0.022 mPa·s
x2 = 0.8
  mass density: 1013.1 ± 0.8 kg/m3
  viscosity: 1.293 ± 0.021 mPa·s
x2 = 0.9
  mass density: 1019.4 ± 0.8 kg/m3
  viscosity: 1.241 ± 0.021 mPa·s

## C1COCCO1 [1,4-dioxane] + CCC(C)=O
x1 = 1
  mass density: 1026.5 ± 0.8 kg/m3
  viscosity: 1.196 ± 0.02 mPa·s

## CCCC(=O)O [butanoic acid] + C1COCO1
x2 = 0
  mass density: 952.8 ± 0.8 kg/m3
  viscosity: 1.396 ± 0.023 mPa·s
x2 = 0.1167
  mass density: 963.1 ± 0.8 kg/m3
  viscosity: 1.297 ± 0.021 mPa·s
x2 = 0.2292
  mass density: 973.7 ± 0.8 kg/m3
  viscosity: 1.202 ± 0.02 mPa·s
x2 = 0.3376
  mass density: 984.3 ± 0.8 kg/m3
  viscosity: 1.111 ± 0.019 mPa·s
x2 = 0.4422
  mass density: 995.3 ± 0.8 kg/m3
  viscosity: 1.023 ± 0.017 mPa·s
x2 = 0.5432
  mass density: 1006.1 ± 0.8 kg/m3
  viscosity: 0.938 ± 0.016 mPa·s
x2 = 0.6408
  mass density: 1016.9 ± 0.8 kg/m3
  viscosity: 0.854 ± 0.015 mPa·s
x2 = 0.7351
  mass density: 1027.2 ± 0.8 kg/m3
  viscosity: 0.77 ± 0.013 mPa·s
x2 = 0.8263
  mass density: 1037.4 ± 0.8 kg/m3
  viscosity: 0.688 ± 0.012 mPa·s
x2 = 0.9146
  mass density: 1047.3 ± 0.9 kg/m3
  viscosity: 0.608 ± 0.011 mPa·s

## C1COCO1 [1,3-dioxolane] + CCC(C)=O
x1 = 0.0976
  mass density: 818.9 ± 0.6 kg/m3
  viscosity: 0.384 ± 0.008 mPa·s
x1 = 0.1957
  mass density: 840.5 ± 0.7 kg/m3
  viscosity: 0.397 ± 0.008 mPa·s
x1 = 0.2944
  mass density: 863.1 ± 0.7 kg/m3
  viscosity: 0.411 ± 0.008 mPa·s
x1 = 0.3935
  mass density: 886.8 ± 0.7 kg/m3
  viscosity: 0.426 ± 0.008 mPa·s
x1 = 0.4933
  mass density: 911.8 ± 0.7 kg/m3
  viscosity: 0.441 ± 0.009 mPa·s
x1 = 0.5935
  mass density: 938.1 ± 0.8 kg/m3
  viscosity: 0.456 ± 0.009 mPa·s
x1 = 0.6943
  mass density: 965.5 ± 0.8 kg/m3
  viscosity: 0.473 ± 0.009 mPa·s
x1 = 0.7956
  mass density: 994.2 ± 0.8 kg/m3
  viscosity: 0.491 ± 0.009 mPa·s
x1 = 0.8975
  mass density: 1024.5 ± 0.8 kg/m3
  viscosity: 0.51 ± 0.01 mPa·s
x1 = 1
  mass density: 1057.1 ± 0.9 kg/m3
  viscosity: 0.531 ± 0.01 mPa·s

## C1COCCO1 [1,4-dioxane] + CCCC(=O)O
x1 = 1
  mass density: 1026.5 ± 0.8 kg/m3
  viscosity: 1.196 ± 0.02 mPa·s

Source: the NIST ThermoML archive (doi:10.1021/je0504109)
